Test results published in patent US11401278B2, “Macrocyclic indole derivatives” (The Broad Institute, Inc., priority 2017, dated 2022).
Like-named read-outs stand apart in the source and are kept apart here.

Tests used:
[1] = test system: MV-4-11; assay: Antiproliferation assay (Assay 7), MV-4-11; format: cell-based; conditions: CellTiter-Glo, several values per example
Outline: (§1)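 Proliferation was read by CellTiter-Glo luminescence after 72 hours of compound treatment at 37° C. The read was referenced to a parallel plate measured at time zero.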

[2] = test system: SUDHL5; assay: Induction of caspase-3/7 activity (Assay 4), SUDHL5; format: cell-based; conditions: caspase-3/7 induction, median
Outline: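 DLBCL cells were exposed to compounds for 3 hours at 37 °C, then caspase-3/7 activation was read with Caspase-Glo 3/7 reagent. After subtracting medium-only background, EC50s were derived with fixed C0=1 and the reference compound's maximal induction as plateau.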

[3] = test system: AMO-1; assay: Antiproliferation assay (Assay 7), AMO-1; format: cell-based; conditions: CellTiter-Glo, several values per example
Outline: as §1

[4] = molecular target: BCL-XL (Homo sapiens (Human), UniProt Q07817); assay: Protein-protein interaction assay BCL-XL/Bad BH3 peptide (BCL-XL assay, TR-FRET); format: binding; conditions: His-BCL-XL / Bad BH3 peptide, median
Chain of BCL-XL (Q07817 other isoform, or with tags, fused parts or gaps): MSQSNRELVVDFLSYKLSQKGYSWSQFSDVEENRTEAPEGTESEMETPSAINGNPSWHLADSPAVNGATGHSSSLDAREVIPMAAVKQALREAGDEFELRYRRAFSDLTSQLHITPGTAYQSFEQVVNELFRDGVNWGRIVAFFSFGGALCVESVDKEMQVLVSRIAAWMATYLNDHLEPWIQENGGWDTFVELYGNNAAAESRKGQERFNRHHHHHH
Experimental: Assay 2 Protein-Protein Interaction Assay: BCL-XL/Bad BH3 Peptide (BCL-XL Assay)
The dose-dependent inhibition by the compounds described in this invention of the interaction between BCL-XL and the BH3 domain of Bad (both human) was determined using a steady state binding competition assay with time-resolved fluorescence energy transfer (TR-FRET) readout. For that purpose BCL-XL (amino acids 1-212, C-terminal fused to a hexahistidine (6×His) tag (SEQ ID 3) and a synthetic Bad BH3-derived peptide of sequence Biotin-PEG2-PEG2-NLWAAQRYGRELRR-Nle-SDEFVDSFKK-amide (SEQ ID 4) served as protein receptor and tracer ligand respectively. The recombinant BCL-XL protein (expressed in E. coli) was purchased from BPS Bioscience (San Diego, Calif., USA). The Bad BH3-derived peptide can be obtained from e.g. Biosyntan (Berlin, Germany).
In the assay 11 different concentrations of each compound (0.1 nM, 0.33 nM, 1.1 nM, 3.8 nM, 13 nM, 44 nM, 0.15 μM, 0.51 μM, 1.7 μM, 5.9 μM and 20 μM) were typically measured as duplicates in the same microtiter plate. For that, 100-fold concentrated DMSO solutions were prepared by serial dilutions (1:3.4) of a 2 mM stock solution in a clear, 384-well microtiter plate (Greiner Bio-One, Frickenhausen, Germany). From there, 50 nl were transferred in a dark test plate (Greiner Bio-One, Frickenhausen, Germany). The assay was initiated by addition of 2 μl of a 2.5-fold concentrated His-BCL-XL solution (usually for a 1 nM end concentration in 5 μl reaction volume) in aqueous assay buffer [50 mM Tris/HCl pH 7, 100 mM sodium chloride (NaCl), 50 mM potassium fluoride (KF), 0.005% Tween-20, 2 mM DTT, 0.1% bovine gamma globulin (BGG)] to the compounds in the assay plate. This was followed by a 10-minute incubation step at 22° C. for pre-equilibration of the putative complex between His-BCL-XL and the compounds. After that, 3 μl of a 1.67-fold concentrated solution (in assay buffer) consisting of Bad BH3-derived peptide (1 nM end concentration) and TR-FRET detection reagents [1.67 nM anti-His-Eu cryptate and 1.67 nM streptavidin-XL665 (both from Cisbio Bioassays, Codolet, France)], were added.
The mixture was incubated in the dark for one hour at 22° C. and then overnight at 4° C. The formation of BCL-XL/Bad complexes was determined by measuring the resonance energy transfer of the anti-His- Eu-cryptate antibody to the streptavidin-XL665 present in the reaction. For that purpose, the fluorescence emission at 620 nm and 665 nm after excitation at 330-350 nm was measured in a TR-FRET measuring instrument, for instance a Rubystar or a Pherastar (both from BMG Lab Technologies, Offenburg, Germany) or a Viewlux (Perkin-Elmer). The ratio of the emission at 665 nm and at 622 nm was used as indicator of the amount of BCL-XL/Bad complexes present.
The resulting data (ratio) were normalized, taking 0% inhibition as the mean value of control measurements (usually 32 data points) where all reagents were included. In this case 50 nl DMSO were used instead of compounds. A 100% inhibition corresponded to the mean value of control measurements (usually 32 data points) where all reagents except BCL-XL were included. IC50 values were determined by regression analysis based on a 4 parameter equation (minimum, maximum, IC50, Hill; Y=Max+(Min−Max)/(1+(X/IC50)^HiII) using the Screener Software (Genedata).

[5] = Homo sapiens, MV4-11, 72 h, read-out: Antiproli MV-4-11 [M] IC50
[6] = Homo sapiens, AMO1, 72 h, read-out: Antiproli AMO-1 [M] IC50
[7] = 72 hours, read-out: Antiproli MV-4-11 [M] IC50
[8] = 72 hours, read-out: Antiproli AMO-1 [M] IC50

| SMILES | IC50 [1, 5] | EC50 ([2]; Homo sapiens, SU-DHL-5, 3 h) | IC50 [4] | IC50 [1, 7] | IC50 ([1]; 72 hours, listed as 09, read-out: Antiproli MV-4-11 [M] IC50) | EC50 ([2]; 3 hours) | IC50 [3, 6] | IC50 [3, 8] | IC50 ([3]; 72 hours, listed as 09, read-out: Antiproli AMO-1 [M] IC50) |
| --- | --- | --- | --- | --- | --- | --- | --- | --- | --- |
| Cc1cc(OCCCc2c(C(=O)O)n3c4c(c(F)ccc24)-c2c(nn(C)c2C)CN(C)S(=O)(=O)CCC3)cc(C)c1Cl (racemic) [Example 28, (rac)-1-(3-(4-Chloro-3,5-dimethylphenoxy)propyl)-13-fluoro-8,11,12-trimethyl-5,6,9,11-tetrahydro-4H,8H-pyrazolo[3′,4′:4,5][1]thia[2,8]diazacycloundecino[6,7,8-hi]indole-2-carboxylic acid 7,7-dioxide] | 7.54e-06 M | 2000 nM | > 20 µM |  |  |  | 1.2e-05 M |  |  |
| Cc1c2c(nn1C)CN(C)S(=O)(=O)CCCn1c(C(=O)O)c(CCCOc3cccc4c3CCCC4)c3ccc(F)c-2c31 (racemic) [Example 29, (rac)-13-Fluoro-8,11,12-trimethyl-1-(3-((5,6,7,8-tetrahydronaphthalen-1-yl)oxy)propyl)-5,6,9,11-tetrahydro-4H,8H-pyrazolo[3′,4′:4,5][1]thia[2,8]diazacycloundecino[6,7,8-hi]indole-2-carboxylic acid 7,7-dioxide] | 5.86e-06 M | 1500 nM | > 20 µM |  |  |  | 7.1e-06 M |  |  |
| CCc1c2c(nn1C)CN(C)S(=O)(=O)CCCn1c(C(=O)O)c(CCCOc3cccc4c3CCC4)c3ccc(F)c-2c31 (racemic) [Example 32, (rac)-1-(3-((2,3-Dihydro-1H-inden-4-yl)oxy)propyl)-12-ethyl-13-fluoro-8,11-dimethyl-5,6,9,11-tetrahydro-4H,8H-pyrazolo[3′,4′:4,5][1]thia[2,8]diazacycloundecino[6,7,8-hi]indole-2-carboxylic acid 7,7-dioxide] | 2.2e-06 M | 580 nM | > 20 µM | 1.14e-06 M |  |  | 2.4e-06 M | 3.9e-06 M |  |
| CCc1c2c(nn1C)CN(C)S(=O)(=O)CCCn1c(C(=O)O)c(CCCOc3cc(C)c(Cl)c(C)c3)c3ccc(F)c-2c31 (racemic) [Example 33, (rac)-1-(3-(4-Chloro-3,5-dimethylphenoxy)propyl)-12-ethyl-13-fluoro-8,11-dimethyl-5,6,9,11-tetrahydro-4H,8H-pyrazolo[3′,4′:4,5][1]thia[2,8]diazacycloundecino[6,7,8-hi]indole-2-carboxylic acid 7,7-dioxide] | 4.62e-06 M | 1600 nM | > 20 µM |  |  |  | 4.8e-06 M |  |  |
| CCc1c2c(nn1C)CN(C)S(=O)(=O)CCCn1c(C(=O)O)c(CCCOc3cccc4cc(F)ccc34)c3ccc(F)c-2c31 (single isomer, unassigned; enantiomer 2) [Example 9, (−)-3-Ethyl-4-fluoro-7-{3-[(6-fluoronaphthalen-1-yl)oxy]propyl}-2,14-dimethyl-13,13-dioxo-10,11,12,13,14,15-hexahydro-2H-13λ^6-pyrazolo[3′,4′:4,5][1,2,8]thiadiazacycloundecino-[6,7,8-hi]indole-8-carboxylic acid (Enantiomer 2)] |  |  | > 20 µM |  | 1.98e-05 M | 21000 nM |  |  | > 3.3e-05 M |
| CCc1c2c(nn1C)CN(C)S(=O)(=O)CCCn1c(C(=O)O)c(CCCOc3cc(C)c(Cl)c(C)c3)c3ccc(Cl)c-2c31 [Example 22, (rac)-13-Chloro-1-(3-(4-chloro-3,5-dimethylphenoxy)propyl)-12-ethyl-8,11-dimethyl-4,5,6,8,9,11-hexahydropyrazolo[3′,4′:4,5][1,2,8]thiadiazacycloundecino[6,7,8-hi]indole-2-carboxylic acid 7,7-dioxide] | 2.41e-06 M | 1800 nM | > 20 µM |  |  |  | 2.6e-06 M |  |  |

Second part, led by results:

| IC50 [1, 5] | EC50 ([2]; Homo sapiens, SU-DHL-5, 3 h) | IC50 [4] | IC50 [1, 7] | IC50 ([1]; 72 hours, listed as 09, read-out: Antiproli MV-4-11 [M] IC50) | EC50 ([2]; 3 hours) | SMILES | IC50 [3, 6] | IC50 [3, 8] | IC50 ([3]; 72 hours, listed as 09, read-out: Antiproli AMO-1 [M] IC50) |
| --- | --- | --- | --- | --- | --- | --- | --- | --- | --- |
| 4.7e-06 M | 800 nM | > 20 µM | 5.51e-06 M |  |  | CCc1c2c(nn1C)CN(C)S(=O)(=O)CCCn1c(C(=O)O)c(CCCOc3cccc4ccccc34)c3ccc(F)c-2c31 (racemic) [Example 31, (rac)-12-Ethyl-13-fluoro-8,11-dimethyl-1-(3-(naphthalen-1-yloxy)propyl)-5,6,9,11-tetrahydro-4H,8H-pyrazolo[3′,4′:4,5][1]thia[2,8]diazacycloundecino[6,7,8-hi]indole-2-carboxylic acid 7,7-dioxide] | 4.2e-06 M | 3.9e-06 M |  |
| 4.34e-06 M | 1200 nM | > 20 µM | 8.18e-06 M |  |  | CCc1c2c(nn1C)CN(C)S(=O)(=O)CCCn1c(C(=O)O)c(CCCOc3ccc(F)c4ccccc34)c3ccc(F)c-2c31 (racemic) [Example 35, (rac)-12-Ethyl-13-fluoro-1-(34(4-fluoronaphthalen-1-yl)oxy)propyl)-8,11-dimethyl-5,6,9,11-tetrahydro-4H,8H-pyrazolo[3′,4′:4,5][1]thia[2,8]diazacycloundecino[6,7,8-hi]indole-2-carboxylic acid 7,7-dioxide] | 5.2e-06 M | 6.6e-06 M |  |
| 1.31e-06 M | 860 nM | > 20 µM |  |  |  | CCc1c2c(nn1C)CN(C)S(=O)(=O)CCCn1c(C(=O)O)c(CCCOc3cccc4ccccc34)c3ccc(Cl)c-2c31 [Example 20, (rac)-13-Chloro-12-ethyl-8,11-dimethyl-1-(3-(naphthalen-1-yloxy)propyl)-5,6,9,11-tetrahydro-4H,8H-pyrazolo[3′,4′:4,5][1]thia[2,8]diazacycloundecino[6,7,8-hi]indole-2-carboxylic acid 7,7-dioxide] | 2.8e-06 M |  |  |
| 2.1e-06 M | 650 nM | > 20 µM |  |  |  | CCc1c2c(nn1C)CN(C)S(=O)(=O)CCCn1c(C(=O)O)c(CCCOc3cccc4c3CCC4)c3ccc(Cl)c-2c31 [Example 21, (rac)-13-Chloro-1-(3-((2,3-dihydro-1H-inden-4-yl)oxy)propyl)-12-ethyl-8,11-dimethyl-5,6,9,11-tetrahydro-4H,8H-pyrazolo[3′,4′:4,5][1]thia[2,8]diazacycloundecino[6,7,8-hi]indole-2-carboxylic acid 7,7-dioxide] | 2.6e-06 M |  |  |
| 1.96e-06 M | 1300 nM | > 20 µM |  |  |  | CCc1c2c(nn1C)CN(C)S(=O)(=O)CCCn1c(C(=O)O)c(CCCOc3cccc4c3CCCC4)c3ccc(Cl)c-2c31 [Example 23, (rac)-13-Chloro-12-ethyl-8,11-dimethyl-1-(3-((5,6,7,8-tetrahydronaphthalen-1-yl)oxy)propyl)-4,5,6,8,9,11-hexahydropyrazolo[3′,4′:4,5][1,2,8]thiadiazacycloundecino[6,7,8-hi]indole-2-carboxylic acid 7,7-dioxide] | 3.8e-06 M |  |  |
